Reference: BindingDB's records for PubMed 34170694 (China Pharmaceutical University, 2021)

Target: T1, Caspase-3 (Homo sapiens, UniProt P42574)
T1 sequence (P42574 whole entry): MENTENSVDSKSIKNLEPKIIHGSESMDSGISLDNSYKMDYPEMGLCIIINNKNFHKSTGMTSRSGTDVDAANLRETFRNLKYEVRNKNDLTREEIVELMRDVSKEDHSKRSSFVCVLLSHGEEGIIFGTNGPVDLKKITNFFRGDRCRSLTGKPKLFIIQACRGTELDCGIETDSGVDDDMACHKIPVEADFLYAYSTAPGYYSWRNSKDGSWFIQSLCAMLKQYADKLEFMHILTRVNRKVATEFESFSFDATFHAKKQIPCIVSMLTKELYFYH
Experiment: Activation of caspase 3 in human MDA-MB-231 cells measured after 48 hrs by Plate reader method

| Structure (SMILES) | EC50 |
| --- | --- |
| C=c1c(O)c(O)cc2c1=CC=C1[C@@]2(C)CC[C@@]2(C)[C@@H]3C[C@](C)(C(=O)O)CC[C@]3(C)CC[C@]12C | 1.4 µM |

Target: not listed separately
Experiment: Activation of caspase 3 in human MDA-MB-231 cells measured after 48 hrs by Plate reader method

| Structure (SMILES) | EC50 |
| --- | --- |
| C#CCOC(=O)[C@]1(C)CC[C@]2(C)CC[C@]3(C)C4=CC=C5C(=CC(=O)C(OC(=O)N(C)CCC)=C5C)[C@]4(C)CC[C@@]3(C)[C@@H]2C1 | 20.5 µM |
| C#CCOC(=O)[C@]1(C)CC[C@]2(C)CC[C@]3(C)C4=CC=C5C(=CC(=O)C(OC(=O)N6CCN(C)CC6)=C5C)[C@]4(C)CC[C@@]3(C)[C@@H]2C1 | 20.5 µM |
| C#CCOC(=O)[C@]1(C)CC[C@]2(C)CC[C@]3(C)C4=CC=C5C(=CC(=O)C(OC(=O)CCC)=C5C)[C@]4(C)CC[C@@]3(C)[C@@H]2C1 | 20.9 µM |
| C#CCOC(=O)[C@]1(C)CC[C@]2(C)CC[C@]3(C)C4=CC=C5C(=CC(=O)C(OC(=O)N(C)C)=C5C)[C@]4(C)CC[C@@]3(C)[C@@H]2C1 | 23.9 µM |
| C#CCOC(=O)[C@]1(C)CC[C@]2(C)CC[C@]3(C)C4=CC=C5C(=CC(=O)C(OC(=O)C=C)=C5C)[C@]4(C)CC[C@@]3(C)[C@@H]2C1 | 22.1 µM |
| C#CCOC(=O)[C@]1(C)CC[C@]2(C)CC[C@]3(C)C4=CC=C5C(=CC(=O)C(OC(=O)N6c7ccccc7C=Cc7ccccc76)=C5C)[C@]4(C)CC[C@@]3(C)[C@@H]2C1 | 23.1 µM |
| C#CCOC(=O)[C@]1(C)CC[C@]2(C)CC[C@]3(C)C4=CC=C5C(=CC(=O)C(OC(=O)c6ccc(F)cc6)=C5C)[C@]4(C)CC[C@@]3(C)[C@@H]2C1 | 21.2 µM |
| C#CCOC(=O)[C@]1(C)CC[C@]2(C)CC[C@]3(C)C4=CC=C5C(=CC(=O)C(OC(=O)N6CCCC6)=C5C)[C@]4(C)CC[C@@]3(C)[C@@H]2C1 | 24.3 µM |
| C#CCOC(=O)[C@]1(C)CC[C@]2(C)CC[C@]3(C)C4=CC=C5C(=CC(=O)C(OC(=O)N6CCCCC6)=C5C)[C@]4(C)CC[C@@]3(C)[C@@H]2C1 | 24.1 µM |
| C#CCOC(=O)[C@]1(C)CC[C@]2(C)CC[C@]3(C)C4=CC=C5C(=CC(=O)C(OC(=O)N(CC)CC)=C5C)[C@]4(C)CC[C@@]3(C)[C@@H]2C1 | 20.4 µM |
| C#CCOC(=O)[C@]1(C)CC[C@]2(C)CC[C@]3(C)C4=CC=C5C(=CC(=O)C(OC(=O)N(CCCC)CCCC)=C5C)[C@]4(C)CC[C@@]3(C)[C@@H]2C1 | 22.3 µM |
| C#CCOC(=O)[C@]1(C)CC[C@]2(C)CC[C@]3(C)C4=CC=C5C(=CC(=O)C(OC(=O)N(C)CCCC)=C5C)[C@]4(C)CC[C@@]3(C)[C@@H]2C1 | 20.3 µM |

The next lines start with the values.

| EC50 | Structure (SMILES) |
| --- | --- |
| 19.6 µM | C#CCOC(=O)[C@]1(C)CC[C@]2(C)CC[C@]3(C)C4=CC=C5C(=CC(=O)C(OC(=O)N6CCN(c7cccc(OC)c7)CC6)=C5C)[C@]4(C)CC[C@@]3(C)[C@@H]2C1 |
| 18.7 µM | C#CCOC(=O)[C@]1(C)CC[C@]2(C)CC[C@]3(C)C4=CC=C5C(=CC(=O)C(OC(=O)N(C)CC)=C5C)[C@]4(C)CC[C@@]3(C)[C@@H]2C1 |
| 15.7 µM | C#CCOC(=O)[C@]1(C)CC[C@]2(C)CC[C@]3(C)C4=CC=C5C(=CC(=O)C(OC(=O)/C=C/c6cccc(Cl)c6)=C5C)[C@]4(C)CC[C@@]3(C)[C@@H]2C1 |
| 17.5 µM | C#CCOC(=O)[C@]1(C)CC[C@]2(C)CC[C@]3(C)C4=CC=C5C(=CC(=O)C(OC(=O)N(CCC)CCC)=C5C)[C@]4(C)CC[C@@]3(C)[C@@H]2C1 |
| 14.1 µM | C#CCOC(=O)[C@]1(C)CC[C@]2(C)CC[C@]3(C)C4=CC=C5C(=CC(=O)C(OC(=O)/C=C/c6ccccc6F)=C5C)[C@]4(C)CC[C@@]3(C)[C@@H]2C1 |
| 20.1 µM | C#CCOC(=O)[C@]1(C)CC[C@]2(C)CC[C@]3(C)C4=CC=C5C(=CC(=O)C(OC(=O)/C=C/c6ccccc6)=C5C)[C@]4(C)CC[C@@]3(C)[C@@H]2C1 |
| 19.3 µM | C#CCOC(=O)[C@]1(C)CC[C@]2(C)CC[C@]3(C)C4=CC=C5C(=CC(=O)C(OC(C)=O)=C5C)[C@]4(C)CC[C@@]3(C)[C@@H]2C1 |
| 17.8 µM | C#CCOC(=O)[C@]1(C)CC[C@]2(C)CC[C@]3(C)C4=CC=C5C(=CC(=O)C(OC(=O)/C=C/c6cccc(C)c6)=C5C)[C@]4(C)CC[C@@]3(C)[C@@H]2C1 |
| 18.2 µM | C#CCOC(=O)[C@]1(C)CC[C@]2(C)CC[C@]3(C)C4=CC=C5C(=CC(=O)C(OC(=O)N6CCN(c7ccccc7OC)CC6)=C5C)[C@]4(C)CC[C@@]3(C)[C@@H]2C1 |
| 18.5 µM | C#CCOC(=O)[C@]1(C)CC[C@]2(C)CC[C@]3(C)C4=CC=C5C(=CC(=O)C(OC(=O)N6c7ccccc7Sc7ccccc76)=C5C)[C@]4(C)CC[C@@]3(C)[C@@H]2C1 |
| 1.6 µM | CC1=C(O)C(=O)C=C2C1=CC=C1[C@@]2(C)CC[C@@]2(C)[C@@H]3C[C@](C)(C(=O)OCc4ccccc4)CC[C@]3(C)CC[C@]12C |
| 10 µM | C#CCOC(=O)[C@]1(C)CC[C@]2(C)CC[C@]3(C)C4=CC=C5C(=CC(=O)C(OC(=O)N6c7ccccc7CCc7ccccc76)=C5C)[C@]4(C)CC[C@@]3(C)[C@@H]2C1 |
| 19.9 µM | C#CCOC(=O)[C@]1(C)CC[C@]2(C)CC[C@]3(C)C4=CC=C5C(=CC(=O)C(OC(=O)N(c6ccccc6)c6ccccc6)=C5C)[C@]4(C)CC[C@@]3(C)[C@@H]2C1 |
| 19.3 µM | C#CCOC(=O)[C@]1(C)CC[C@]2(C)CC[C@]3(C)C4=CC=C5C(=CC(=O)C(OC(=O)N6CCN(c7ccccc7)CC6)=C5C)[C@]4(C)CC[C@@]3(C)[C@@H]2C1 |
| 14.9 µM | C#CCOC(=O)[C@]1(C)CC[C@]2(C)CC[C@]3(C)C4=CC=C5C(=CC(=O)C(OC(=O)C(=C)C)=C5C)[C@]4(C)CC[C@@]3(C)[C@@H]2C1 |
| 16.4 µM | C#CCOC(=O)[C@]1(C)CC[C@]2(C)CC[C@]3(C)C4=CC=C5C(=CC(=O)C(OC(=O)c6ccc(Br)cc6)=C5C)[C@]4(C)CC[C@@]3(C)[C@@H]2C1 |
| 19.7 µM | C#CCOC(=O)[C@]1(C)CC[C@]2(C)CC[C@]3(C)C4=CC=C5C(=CC(=O)C(OC(=O)/C=C/C)=C5C)[C@]4(C)CC[C@@]3(C)[C@@H]2C1 |
| 20.1 µM | C#CCOC(=O)[C@]1(C)CC[C@]2(C)CC[C@]3(C)C4=CC=C5C(=CC(=O)C(OC(=O)N6CCN(c7ccc(Cl)cc7)CC6)=C5C)[C@]4(C)CC[C@@]3(C)[C@@H]2C1 |
| 20.3 µM | C#CCOC(=O)[C@]1(C)CC[C@]2(C)CC[C@]3(C)C4=CC=C5C(=CC(=O)C(OC(=O)N6CCN(c7ccccc7Cl)CC6)=C5C)[C@]4(C)CC[C@@]3(C)[C@@H]2C1 |
